Assay results published in patent publication EP3138849B1, “SALTS OF PHOSPHORUS-CONTAINING AMINOGLYCOSIDE ANTIBIOTICS” (Mathys AG Bettlach, priority 2015, dated 2017).

What was measured:
MC 3T3-E1-Zellen = format: cell-based, Maus
Protocol: Für die Untersuchungen der Cytokompatibilität der aminoglykosidhaltigen Beschichtungen werden runde, sandgestrahlte Probekörper aus Reintitan mit einem Durchmesser von 11 mm mit Gentamicin-Palmitat, Gentamicin-Dodecylphosphat bzw. Gentamicin-Octadecylphosphonsäure mit einem Gehalt von 100 µg Gentamicn-Base pro cm^2, wie in Beispiel 30 beschrieben, beschichtet.
Die Probekörper werden nach dem Trocknen der Beschichtung in Mikrotiterplatten überführt und mit einer definierten Anzahl von MC 3T3-E1-Zellen (Maus-Präosteoblasten-Zelllinie, 25.000 Zellen/ml) besiedelt.
Nach einer Inkubationszeit von 4 Tagen erfolgt die Vitalfärbung mit einer Mischung aus Fluoresceindiacetat (FDA) und GelRed®.
Fig. 2 zeigt die Vitalitätsbestimmung der Zellen mittels Auflicht-Fluoreszenzmikroskopie: Gentamicin-Palmitat (A), Gentamicin-Dodecylphosphat (B), Gentamicin-Octadecylphosphat (C).

[1] = Release of aminoglycosides from coatings on pure titanium test discs; format: physicochemical; details: for Freisetzungsrate von Gentamicin-Base (time course) / initiale Freisetzung von Gentamicin-Base: coated titanium disc, 100 µg Gentamicin-Base per cm^2, 1 ml isotonic saline, 37 °C; for Freisetzungsrate von Gentamicin-Base (time course): 21 d, sampling at 1, 2, 3, 4, 7, 14, 21 days; for Freisetzungsrate von Gentamicin-Base (time course) / Wirkstofffreisetzung von beschichteten Titanoberflächen: Fig. 1; for initiale Freisetzung von Gentamicin-Base: Fig. 1, start of release; for Wirkstofffreisetzung von beschichteten Titanoberflächen: compared with Gentamicin-Palmitat
Excerpt: Zur Untersuchung der Freisetzung von Aminoglykosiden aus Beschichtungen werden runde Probekörper aus Reintitan (Grade 4) mit einem Durchmesser von 11 mm verwendet. Für die Beschichtungen werden folgende Aminoglycosid-Verbindungen verwendet: Gentamicin-Palmitat, Gentamicin-Dodecylphosphat und Gentamicin-Octadecylphosphonsäure.
Umsetzung von Gentamicin mit Palmitat im molaren Verhältnis 1:4. Umsetzung von Gentamicin mit Dodecylphosphat bzw. Octadecylphosphonat im molaren Verhältnis 1:3.
Lösung von Gentamicin-Palmitat, Gentamicin-Dodecylphosphat und Gentamicin-Octadecylphosphonsäure in Ethanol (Konzentration 15-25 mg/ml). Auf die Oberfläche wurden unter sterilen Bedingungen 100 µg Gentamicin-Base pro cm^2 aufgetragen. Trocknen der Beschichtung (4 h bei Raumtemperatur).
Inkubation der beschichteten Probekörper in 1 ml isotonischer Kochsalzlösung über eine Zeitdauer von 21 d bei 37 °C. Zu festgelegten Zeitpunkten (1, 2, 3, 4, 7, 14 und 21 Tagen) werden die Überstände abgenommen und die Probekörper in neuer isotonischer Kochsalzlösung weiter inkubiert.
Der Gehalt an Gentamicin wurde im Hemmhoftest mit Bacillus subtilis (ATCC 6633) bestimmt.
Die gemittelte Menge der freigesetzten Gentamicin-Base aus diesen Gentamicin-Salzen ist in Fig. 1 dargestellt.

Substance | Zytotoxizität (MC 3T3-E1-Zellen) | Freisetzungsrate von Gentamicin-Base (time course) [1] | initiale Freisetzung von Gentamicin-Base [1] | Wirkstofffreisetzung von beschichteten Titanoberflächen [1] | Zellzahlen (MC 3T3-E1-Zellen)
Gentamicin-Dodecylphosphat | signifikant geringere Zytotoxizität | bleibt bis Tag 7 konstant und fällt dann nur schwach ab | niedrigere Freisetzungsrate von Gentamicin-Base als das Gentamicin-Palmitat | retardierende Wirkstofffreisetzung | –
Gentamicin-Octadecylphosphonsäure | – | bleibt von Tag 2 bis Tag 14 konstant | niedrigste initiale Freisetzung von Gentamicin-Base | retardierende Wirkstofffreisetzung | –
Gentamicin-Palmitat [reference compound] | – | bis zum vierten Freisetzungstag stark abnimmt | initial hohen Freisetzung der Gentamicin-Base (Burst release) | – | niedrigsten Zellzahlen
